Read-outs that look alike come from different tables or passages of the source.
Tests used:
[1] = tested on: bladder function in anesthetized rats; assay: Intravesical model in anesthetized rats (increased bladder contraction frequency), cystometry; format: in vivo, rat; details: 10 μM intravesical
Method: Female Sprague Dawley rats (200-290 g) from Charles River France, housed in 3-4 rats per cage were anesthetized with urethane (1.2 g/kg) s.c., 3 mL/kg). A polyethylene catheter was implanted into the bladder through the dome. Ureters were tied and cut. Intravesical infusion periods with saline followed by an intravesical infusion period with one of the test compounds, hexamethonium (10 μM) or dexmecamylamine (1 and 10 μM), are depicted in FIG. 7.
The intravesical anesthetized rat model is a model of increased bladder contraction frequency. The model is a “simplified” well established model used to evaluate OAB agents, recognizing that there are decreased inputs from cortical centers. This is the first known experiment using the intravesical anesthetized rat model of increased bladder contraction frequency to test dexmecamylamine for potential efficacy in treating OAB.

[2] = tested on: nicotinic receptors expressed in rat urinary bladder epithelial cells; details: intravesical; nicotine 0.05 and 1 μM, hexamethonium 10 and 100 μM, choline 10 and 100 μM; cited from earlier work
[3] = target: T1, human α3β4 channels (Homo sapiens, UniProt P30926+P32297); assay: Use-dependent inhibition of human α3β4 channels expressed in CHO cells (Dynaflow electrophysiology); format: cell-based
T1 construct: host or cells: CHO cells
Method: There was an assumption that the dependence on the number of co-applications would be the most relevant to clinical concentrations, since upon the time of exposure in vivo, the number of open channels could reach substantial numbers; perhaps due to channel spontaneous opening, flickering, and endogenous transmitter release as a result of brain activity. All experiments were performed using a conventional Dynaflow (Cellectricon Inc.) electrophysiological system. Dynaflow settings: To achieve continuous exposure to the drug we used following Dynaflow chip loading. An example of standard chip loading for use-dependent experiments with example for 30 μM ACh and 0.1 μM of TC-05231 (racemic mecamylamine). For the following experiments, ACh always consisted of 30 μM and concentrations of compounds were, 0.03, 0.1, 0.3 and 1.0 (μM). FIG. 13 illustrates the settings.
Applications were performed by positioning the cell in front of channel #1 for 1 second, followed by channel #3, then back to channel #1 by rapidly moving the Dynaflow chip, which consisted of both the laminar flow from the channels and the entire bath solution. The additional channels between control and ACh-containing channel were used: (1) to provide the needed space for an additional washout to avoid contaminating the control channels with the agonist solution; and (2) to allow for the necessary amount of time for the Dynaflow stage to reach its optimum scanning speed.
3.1. Establishment of recording baseline: First, pipette with cells moved to channel #3. Then cells were exposed to ACh by moving cells to channel #1 for 1 second and back to channel #3. This movement of cells was repeated 10 times at 30 second intervals;
3.2. Collection data on use-dependent inhibition: After establishment of stable baseline, cells were moved to channel #6 and exposed to a test compound for 30 sec. Then cells were moved to channel #8 for 1 second and back to channel #6 for 30 seconds (total 10 times with intervals 30 seconds); and 3.3. To test reversibility of block (washout): repeat step 1. Note: with this chip setting, during repeated application of acetylcholine plus test compound, there was no interruption in application of compounds. For all calculations, peak current amplitude was normalized to the peak current amplitude evoked by the 10th application of acetylcholine. Experimental Results

[4] = racemic Inversine 2.5 mg BID, spinal cord injury subjects; cited from earlier work
[5] = target: NMDA receptor NR1a-NR2A (Homo sapiens, UniProt Q05586+Q12879); assay: Glutamate-evoked currents at NR1a-NR2A receptors in Xenopus oocytes (two electrode voltage-clamp); format: cell-based; details: for recovery following wash-out: after sustained exposure
Method: All experiments were carried out at receptors expressed in Xenopus oocytes using the method of cDNA expression. Currents evoked by glutamate were recorded using the standard two electrode voltage-clamp configuration (TVEC). Xenopus oocytes were prepared and injected using standard procedures.
Briefly, ovaries are harvested from Xenopus Laevis females that have been deeply anesthetized and pithed following the animal rights rule from the Geneva canton. A small piece of ovary is isolated for immediate preparation while the remaining part is placed at 4° C. in a sterile Barth solution containing in mM NaCl 88, KCl 1, NaHCO3 2.4, HEPES 10, MgSO4.7H2O 0.82, Ca(NO3)2.4H2O 0.33, CaCl2.6H2O 0.41, at pH 7.4, and supplemented with 20 μg/ml of kanamycine, 100 unit/ml penicillin and 100 μg/ml streptomycin. On the second day following dissociation, oocytes are injected with 2 ng of cDNA per oocyte containing the NR1a-NR2A or NR1a-NR2B using an automated injector (Hogg et al., J. Neurosci. Methods, 2008). […] Cells were held at −80 mV. Data were filtered at 10 Hz, captured at 100 Hz and analyzed using HiQ proprietary data acquisition and analysis software running under Matlab (Mathworks Inc.).
Oocytes expressing the NR1a-NR2A or NR1a-NR2B receptors were challenged at periodic intervals with a glutamate test pulse. Test drug was then applied during a sustained period and its effects monitored by measuring the amplitude and time course of the glutamate evoked currents.
Experiments were carried out with the NR1a-NR2A and NR1a-NR2B at least in triplicate. Positive reference compounds (ketamine and MK-801) were tested using the same protocol.
To further evaluate effects of TC-5214, experiments using sustained exposure to this compound followed by a recovery period were carried out at NR1a-NR2A and NR1a-NR2B receptors. Measurements were made with (nM) 0, 3, 10, 30, 100, 300, TC-5214 and recovery monitored during 10 minutes. In addition, the same experimental protocol will be used with cells in control conditions to assess the stability of the measurements. Effects were measured in at least three cells.
A use-dependent protocol was used to identify non-competitive inhibition of the receptors. Cells expressing the NMDA receptors were tested for their sensitivity to TC-5214 at 30 nM, using the same protocol as described above. Cells from the same batch were tested in parallel using the same incubation time with an identical concentration of TC-5214 (30 nM) but in absence of pulses during the incubation time with the compound. Two glutamate pulses were applied at the end of the incubation time, and recovery monitored as for the control conditions.

[6] = tested on: bladder function in conscious rats; assay: Intravesical model in conscious rats, first study (UROsphere), cystometry; format: in vivo, rat; details: tolterodine 10 μM, TC-5213 1 and 10 μM, hexamethonium 10 μM, TC-5214 0.1, 1 and 10 μM
Excerpt: (1) In a first study (performed by UROsphere), female Sprague Dawley rats (200-270 g) from Charles River France, housed in 3-4 rats per cage were anesthetized with isoflurane (1.5-3%). […], a polyethylene catheter was implanted in the bladder through the dome and exteriorized at the scapular level. Each rat was housed individually after surgery. The cystometry is depicted in FIG. 2. This is the first known experiment using the intravesical model in conscious rats to test dexmecamylamine for potential efficacy in treating OAB.
The effects of dosing dexmecamylamine (also referred to as TC-5214 and as TI-11179), at doses of 0.1, 1, and 10 μM are depicted in FIG. 4.
The effects of dosing hexamethonium (10 μM) and tolterodine (10 μM) are depicted in FIG. 5.

[7] = TC-5213 28-day repeated oral toxicity study in rats; format: in vivo, rat
Method: Eighty rats (40/sex) were assigned to 4 groups of 10/sex/group. Test article in purified water or water (vehicle) alone were administered once daily via oral gavage at a dose volume of 10 mL/kg. The dose levels were 0, 1, 10, and 50 mg/kg/day. Animals were given TC-5213-23 orally (gavage) for 28 days except those given the test article at 50 mg/kg from Day 1 to 7, followed by a dose of 40 mg/kg/day on the subsequent 21 days. The dose levels were calculated based on the free base form of the test article.

[8] = 50 mg/kg/day oral, first week, after three to seven doses

Chain of NMDA receptor NR1a-NR2A (Q12879 23-1464, other chains not shown): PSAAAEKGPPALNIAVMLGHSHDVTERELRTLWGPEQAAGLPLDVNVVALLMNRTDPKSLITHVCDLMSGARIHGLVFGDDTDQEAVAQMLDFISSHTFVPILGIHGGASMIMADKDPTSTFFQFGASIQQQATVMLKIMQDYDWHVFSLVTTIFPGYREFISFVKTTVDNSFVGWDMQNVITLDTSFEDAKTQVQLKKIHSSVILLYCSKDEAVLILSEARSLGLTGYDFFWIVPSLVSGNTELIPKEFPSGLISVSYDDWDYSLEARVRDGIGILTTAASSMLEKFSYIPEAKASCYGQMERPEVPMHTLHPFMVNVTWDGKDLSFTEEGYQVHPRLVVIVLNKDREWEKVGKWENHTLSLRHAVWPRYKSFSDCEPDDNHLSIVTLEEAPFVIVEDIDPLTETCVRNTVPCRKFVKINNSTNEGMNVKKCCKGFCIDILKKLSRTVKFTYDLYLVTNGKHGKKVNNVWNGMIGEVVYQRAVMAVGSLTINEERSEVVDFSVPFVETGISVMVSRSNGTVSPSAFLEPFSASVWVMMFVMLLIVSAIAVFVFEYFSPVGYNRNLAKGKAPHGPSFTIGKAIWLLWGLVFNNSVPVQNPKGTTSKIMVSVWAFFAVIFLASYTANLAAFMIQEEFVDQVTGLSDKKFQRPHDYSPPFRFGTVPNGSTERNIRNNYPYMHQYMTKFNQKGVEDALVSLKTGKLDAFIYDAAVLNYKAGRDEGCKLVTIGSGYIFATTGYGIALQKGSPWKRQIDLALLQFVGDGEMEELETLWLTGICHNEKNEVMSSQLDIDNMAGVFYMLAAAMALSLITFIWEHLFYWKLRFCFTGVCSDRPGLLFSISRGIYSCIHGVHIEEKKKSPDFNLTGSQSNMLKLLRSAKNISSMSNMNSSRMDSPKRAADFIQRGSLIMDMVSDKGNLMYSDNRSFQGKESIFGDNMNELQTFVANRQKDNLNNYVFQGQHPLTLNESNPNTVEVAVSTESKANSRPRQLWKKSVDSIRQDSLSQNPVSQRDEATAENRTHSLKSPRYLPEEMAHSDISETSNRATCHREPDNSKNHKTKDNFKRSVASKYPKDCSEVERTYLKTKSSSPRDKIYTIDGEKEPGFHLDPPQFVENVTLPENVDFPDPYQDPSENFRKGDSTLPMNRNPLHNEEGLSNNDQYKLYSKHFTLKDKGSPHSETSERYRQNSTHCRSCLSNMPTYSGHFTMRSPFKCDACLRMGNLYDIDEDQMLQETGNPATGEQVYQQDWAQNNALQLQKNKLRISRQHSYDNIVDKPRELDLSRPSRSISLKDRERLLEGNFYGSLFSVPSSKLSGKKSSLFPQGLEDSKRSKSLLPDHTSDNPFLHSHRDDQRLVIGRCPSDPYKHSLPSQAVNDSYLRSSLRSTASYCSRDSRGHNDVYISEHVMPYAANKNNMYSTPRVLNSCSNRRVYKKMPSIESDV
T1 sequence (P32297 32-505): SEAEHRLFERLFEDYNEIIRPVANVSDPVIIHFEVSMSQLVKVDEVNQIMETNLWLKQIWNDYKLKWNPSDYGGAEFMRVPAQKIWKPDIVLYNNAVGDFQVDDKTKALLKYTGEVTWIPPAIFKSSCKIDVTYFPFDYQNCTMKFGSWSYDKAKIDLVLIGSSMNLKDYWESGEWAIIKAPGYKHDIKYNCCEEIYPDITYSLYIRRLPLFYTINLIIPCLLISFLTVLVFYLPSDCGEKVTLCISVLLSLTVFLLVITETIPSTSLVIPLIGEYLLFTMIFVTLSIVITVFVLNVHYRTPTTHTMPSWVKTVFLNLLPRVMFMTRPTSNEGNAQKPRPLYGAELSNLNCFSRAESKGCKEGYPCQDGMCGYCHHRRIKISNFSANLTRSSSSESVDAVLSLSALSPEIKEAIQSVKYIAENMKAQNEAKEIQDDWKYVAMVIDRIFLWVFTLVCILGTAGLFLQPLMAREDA
T1 sequence (P30926 22-498): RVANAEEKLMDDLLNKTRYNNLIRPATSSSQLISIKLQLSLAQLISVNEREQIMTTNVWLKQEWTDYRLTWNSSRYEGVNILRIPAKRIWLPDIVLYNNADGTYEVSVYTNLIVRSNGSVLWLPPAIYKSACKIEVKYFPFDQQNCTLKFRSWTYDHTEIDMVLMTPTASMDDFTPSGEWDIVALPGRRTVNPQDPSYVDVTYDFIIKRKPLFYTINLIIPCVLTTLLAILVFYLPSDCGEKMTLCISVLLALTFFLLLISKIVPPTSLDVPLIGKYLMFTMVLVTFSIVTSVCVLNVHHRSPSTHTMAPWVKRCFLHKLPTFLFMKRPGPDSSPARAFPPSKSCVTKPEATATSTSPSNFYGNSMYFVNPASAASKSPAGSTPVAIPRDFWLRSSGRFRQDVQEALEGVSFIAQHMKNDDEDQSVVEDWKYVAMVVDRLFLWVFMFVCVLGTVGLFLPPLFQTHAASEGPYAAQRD

C[N+](C)(C)CCCCCC[N+](C)(C)C [hexamethonium]
changes in the frequency of bladder contraction [1]: meaningful changes | significant effects on nicotinic receptors expressed in rat urinary bladder epithelial cells [2]: significant effects

CNC1(C)C2CCC(C2)C1(C)C.Cl (racemic) [TC-5231, N,2,3,3-tetramethylbicyclo[2.2.1]heptan-2-amine hydrochloride, reference compound]
Inhibition by (%) ([3]; 100 nM compound, after 10 co-applications of 30 uM Ach and compound, hydrochloride): 25% ± 7% | activity at 0.03 µM ([3]; CHO, 30 nM compound + 30 μM ACh, successive grid rows = co-applications 1 to 10, control = 100, read-out: peak current amplitude normalized to 10th ACh application, use-dependent inhibition box): 99.3% | activity at 0.1 µM ([3]; CHO, 100 nM compound + 30 μM ACh, successive grid rows = co-applications 1 to 10 at 30 s intervals, control = 100, read-out: peak current amplitude normalized to 10th ACh application, use-dependent inhibition box): 94.5% | inhibition at 0.1 µM ([3]; CHO, 100 nM compound with acetylcholine, read-out: inhibition of human α3β4 receptor (asymptotes to the curve, FIG. 14)): 20% | inhibition at 0.1 µM ([3]; CHO, 100 nM compound, after 10 co-applications of 30 uM Ach and compound, read-out: Inhibition by (%)): 24.8% | recovery (%) ([3]; after 100 nM compound, following 10 application of Ach (30 uM) alone): 105% ± 11% | recovery / persistence of inhibition after wash out ([3]; after 30 and 100 nM compound, agonist alone): full recovery | bladder electric potential (amplitude of contraction) [4]: decrease in bladder electric potential (amplitude of contraction)

CNC1(c2ccccc2Cl)CCCCC1=O (stereo not shown) [ketamine, reference compound]
recovery following wash-out [5]: clear evidence for recovery

Cc1ccc(O)c([C@H](CCN(C(C)C)C(C)C)c2ccccc2)c1 [tolterodine]
significant effects in cystometry [6]: significant effects

C[C@]12N[C@H](Cc3ccccc31)c1ccccc12 [MK-801, reference compound]
recovery following wash-out [5]: little evidence of recovery | inhibition by positive control ([5]; sustained exposure, glutamate test pulses): nearly complete inhibition

CN[C@]1(C)[C@H]2CC[C@H](C2)C1(C)C [TC-5213, exo-R-mecamylamine]
significant effects in cystometry [6]: significant effects | distended urinary bladder, full of urine, in early dead animals: females ([7]; 50 mg/kg/day oral): 2 | distended urinary bladder, full of urine, in early dead animals: males ([7]; 50 mg/kg/day oral): 3 | early deaths, females [7, 8]: 5/10 | early deaths, males [7, 8]: 4/10 | mortality, organ weight and microscopic changes ([7]; 50→40 mg/kg/day daily oral): resulted in mortality, organ weight and/or microscopic changes | No-Observed-Effect-Level (NOEL) ([7]; 28 days oral, males and females): 1 mg/kg/day | opthalmological examinations ([7]; rat, in vivo): No test article related changes | clinical pathology changes ([7]; rat, in vivo, 40 mg/kg/day): slight increases in neutrophils; slight decreases in lymphocyte and platelets; slight increases in ALT, AST, and calcium | organ weights at necropsy ([7]; rat, in vivo, 40 mg/kg/day): decreased organ weights of prostate gland, seminal vesicles and thymus

CN1CCCC1c1cccnc1 (stereo not shown) [nicotine]
significant effects on nicotinic receptors expressed in rat urinary bladder epithelial cells [2]: significant effects

Source: patent US8901177B2, “Method of treating bladder disorders” (Targacept, Inc., priority 2012, dated 2014)
